The term viability denotes a per cent measure of how many cells are alive, often set against a control. Usually IC50 stands for the concentration needed to halve the response being measured. A lower IC50 goes with greater potency.

Marks after values point to notes of the source that are not given here.

A short description of data set [1]: Apparent pKa by direct titration with NaOH. The data set is classed as physicochemical. The settings on record: aqueous solution, concentration above the minimum aggregation concentration; pH at semi-equivalence point. The method, then:
In order to determine the ionization state of these gemini surfactants at the pH used to investigate their biological properties, the apparent acid pKa was determined for each of them. The pKap value has been determined by means of a direct titration with NaOH of an aqueous solution of each compound. The surfactant concentrations used were in all cases higher than the minimum aggregation concentration, thus avoiding possible deviations in the pK value due to the monomer–aggregate balance. The pKap values can be estimated from the pH at the semi-equivalence point that is reached when the molar ratio of protonated and non-protonated species is 1:1. In these conditions, we have that the pH = pKa.
The pKa value of each compound has been determined by means of a direct titration with NaOH of an aqueous solution of each compound. The pH was measured using the pH electrode Thermo Electron Corporation ORION 8103SC and the temperature was controlled by a thermostatic bath, Heto CBN 8-30. The pKa values can be estimated from the pH at the semi-equivalence point, which contains a 1:1 molar ratio of protonated and non-protonated species; at this point, pH = pKap.

A short description of data set [2]: Cell viability, NRU assay. In kind it is cell-based, human. The settings on record: human, HaCaT cells (immortal human keratinocytes); NRU, HaCaT, surfactant in solution at 35.6 µg/mL, 24 h; read-out: cellular viability. As for the experimental part:
(§1) The immortal human keratinocyte (HaCaT) and the squamous cell carcinoma (A431) were obtained from Celltec, University of Barcelona. The cells were grown in DMEM medium (4.5 g/L glucose) supplemented with 10% (v/v) FBS, 2 mM L-glutamine, 100 U/mL of penicillin and 100 μg/mL of streptomycin at 37 °C under 5% CO2. Cells were routinely cultured in 75 cm^2 culture flasks and were trypsinized using trypsin-EDTA when reached approximately 80% of confluence.
(§2) HaCaT cells (1 × 10^5 cells/mL) and A431 cells (5 × 10^4 cells/mL) were grown at the defined densities into the central 60 wells of a 96-well microplate. Cells were incubated for 24 h under 5% CO2 at 37 °C. The medium was then removed and the cells were incubated with the surfactants (100 μL), previously diluted 1:1 (v/v), reaching a concentration of […] in DMEM medium supplemented with 5% FBS using two different colorimetric methods for quantification, as follows.
(§3) The accumulation of the neutral red dye in the lysosomes of viable, undamaged cells constitutes the basis of the neutral red uptake (NRU) assay. After the cells were incubated for 24 h with the corresponding systems at 35.6 µg/mL, the medium was removed and the surfactants´ solutions were incubated for 3 h with the NRU dye solution (50 μg/mL) dissolved in the medium without FBS and phenol red (Lonza). Cells were then washed with sterile PBS, followed by the addition of 100 μL of a solution containing 50% ethanol absolute and 1% acetic acid in distilled water to extract the non-adhered dye. The microplates were then stirred for 5 min at 25 °C to promote the dissolution. Finally, the absorbance of the resulting solutions was measured at λ = 550 nm using a Bio-Rad 550 microplate reader (Hercules, CA, USA).

The subject of data set [3] is immortal human keratinocytes (HaCaT). Put plainly: Cell viability, NRU assay. In kind it is cell-based. The method, then: as §1, §2, §3
Data set [4] has as its system squamous cell carcinoma (A431). Nature of the data set: Cell viability, NRU assay. In kind it is cell-based. As to conditions: A431, surfactant in solution at 35.6 µg/mL, 24 h. The method, then: as §1, §2, §3
Details of data set [5]: method as in doi:10.1021/la981295l. As to conditions: cited from earlier work.
On the set-up of data set [6]: method as in doi:10.1021/la981295l. The settings on record: cited from earlier work. The source holds these as a separate data set.
On the set-up of data set [7]: method as in doi:10.1021/la981295l. As to conditions: cited from earlier work. The source holds these as a separate data set.

For `CCCCCCCCCCCC(=O)NC(CCCNC(=N)N)C(=O)NCCCNC(=O)C(CCCNC(=N)N)NC(=O)CCCCCCCCCCC` (stereo not drawn) [C3(LA)2, Bis (N^α-lauroyl arginine 1,3-propane) diamide], the pKap in data set [1] is on record as 11.4. Besides, the viability at 24 h, 35.6 µg/mL in data set [2] is 66.2%. This molecule also returned an IC50 in data set [3] (Homo sapiens, NRU method, HaCaT, above the highest tested concentration) greater than 35.6 µg/mL. Moreover, the “therapeutic index (TI), IC50/MIC ratio” value in data set [3] (NRU, HaCaT IC50 versus MIC against the Gram-positive bacteria, E. coli and PA01) was “higher than one”. In addition, the “cytotoxicity, in words” value in data set [4] is on record as “did not cause any apparent cytotoxicity”. The “CMC (mM) Conductivity” value in data set [5] was 0.5 * mM. Besides, in data set [6], the “CMC (mM) Fluorescence” value was 0.4 * mM. Besides, in data set [7], the “CMC (mM) Surface Tension” value is reported as 0.005 * mM. The γcmc in data set [7] (surface tension at the cmc) was 35 * mN/m.

The values are drawn from publication PMC10536132, “Arginine Gemini-Based Surfactants for Antimicrobial and Antibiofilm Applications: Molecular Interactions, Skin-Related Anti-Enzymatic Activity and Cytotoxicity” (Molecules, 2023).
